Test results published in US20100041620A1, “METHODS FOR IMPROVING FRONTAL BRAIN BIOENERGETIC METABOLISM” (priority 2008, published 2010).

Tests used:
[1] = tested on: anterior cingulate cortex (ACC); experiment: 31P magnetic resonance spectroscopic imaging (3D-CSI, 4 Tesla) of phosphorus metabolites, anterior cingulate cortex; assay type: in vivo, human
Description: (§1) ^31P data were collected using a three-dimensional chemical shift imaging (3D-CSI) technique at 4 Tesla in healthy middle-aged individuals. The use of 3D-CSI at high field has several advantages over previous methods: (1) increased spectral dispersion, which allows for increased precision of metabolite quantification; (2) post-processing grid shifting that allows for 3D placement of voxels of interest; and (3) the ability to co-register voxel placement between baseline and post-treatment follow-up. High-energy metabolite peaks quantified in the present study include phosphocreatine (PCr), β-nucleoside triphosphate (NTP, ATP in brain), and inorganic phosphate (Pi). Phospholipid membrane metabolite peaks quantified include anabolites, phosphomonoesters (PME), including phosphoethanolamine (PE) and phosphocholine (PC), and catabolites, phosphodiesters (PDE), including glycerophosphoethanolamine (GPE) and glycerolphosphocholine (GPC). A region of interest approach was used to examine phosphorus metabolite levels in the anterior cingulate cortex (ACC), given the notable age-related decline in frontal brain metabolism and impairment of frontally-mediated cognitive functions. A comparison region placed in the parieto-occipital cortex (POC) was also evaluated. It was hypothesized that oral supplementation with citicoline would improve frontal bioenergetic metabolism via elevations in availability of high-energy phosphates, as well as alteration of membrane phospholipid turnover by providing additional membrane precursors.
(§2) Subjects included sixteen neurologically and psychiatrically healthy adults (mean age=47.3±5.4 years; 8 females, 8 males). Trained research technicians administered a structured clinical psychiatric interview using the Structured Clinical Interview for DSM-IV (SCID). All subjects were free of Axis I diagnoses, neurological illness, severe medical problems, and psychoactive substance use.
(§3) Subjects were randomly assigned to receive a six-week supply of either 500 mg (4 males and 4 females) or 2000 mg (4 males and 4 females) of Cognizin® Citicoline (Kyowa Hakko Kogyo Co., Ltd., JAPAN). Subjects were instructed to take one capsule every day (500 mg group) or four capsules every day in a single dose (2000 mg group) for six weeks. […] Magnetic resonance spectroscopy (MRS) was completed on all subjects in two imaging sessions: one prior to beginning treatment (baseline) and one after completing six weeks of treatment.
(§4) All proton imaging was performed using the proton channel of the dual tuned open face proton-phosphorus TEM whole-head coil from Bioengineering Inc. (Minneapolis, Minn.) operating at a nominal frequency of 170.3 MHz. A 2D gradient-recalled echo imaging sequence (12 seconds duration) was used to acquire a single image in all three spatial dimensions (sagittal, coronal, axial) to quickly determine the patient's position and angle. High-contrast, T1-weighted sagittal, coronal images as well as T1 and T2-weighted transverse images of the entire brain were acquired using a three-dimensional, magnetization-prepared FLASH imaging sequence (3D-MP FLASH), allowing for clear segmentation between grey-matter, white-matter, and CSF, as well as clearly delineating between the different anatomical regions of interest. This approach was used to optimize ^31P-MRSI voxel positioning and volumetric correction in the regions of interest.
(§5) Phosphorus MRSI was performed using the phosphorus channel of the dual tuned proton-phosphorus TEM whole-head coil from Bioengineering Inc. (Minneapolis, Minn.) operating at 68.9 MHz. Phosphorus MRSI data were recorded using a three-dimensional chemical shift imaging (3D-CSI) sequence (Garraux, Neuroimage 10:149-162, 1999). […]

[2] = tested on: parieto-occipital cortex (POC); experiment: 31P magnetic resonance spectroscopic imaging (3D-CSI, 4 Tesla) of phosphorus metabolites, parieto-occipital cortex comparison region; assay type: in vivo, human; conditions: 6 weeks oral citicoline, doses pooled, mean ± SD
Description: as §1, §2, §3, §4, §5

[3] = six weeks of citicoline supplementation, decrease
[4] = six weeks of citicoline supplementation, increase

For `C[N+](C)(C)CCOP(=O)(O)OP(=O)([O-])OC[C@H]1O[C@@H](n2ccc(N)nc2=O)[C@H](O)[C@@H]1O` [citicoline, cytidine 5′-diphosphocholine], the “PCr, metabolite ratio relative to the total 31P signal” value ([1]; 6 weeks oral citicoline, 500 and 2000 mg/day groups pooled, mean ± SD, baseline .154 ± .019, p .02) was “.162 ± .015”, the PCr/Pi ([1]; 6 weeks oral citicoline, doses pooled, mean ± SD, baseline 2.17 ± .46, p .03) was 2.82 ± 1.04 and the “PC, metabolite ratio relative to the total 31P signal” value ([1]; 6 weeks oral citicoline, doses pooled, mean ± SD, baseline .026 ± .010, p .02) was “.019 ± .008”. For the same compound, the “GPE, metabolite ratio relative to the total 31P signal” value ([1]; 6 weeks oral citicoline, doses pooled, mean ± SD, baseline .039 ± .010, p .01) was “.030 ± .009”, the “PE, metabolite ratio relative to the total 31P signal” value ([1]; 6 weeks oral citicoline, doses pooled, mean ± SD, baseline .043 ± .015, p .04) was “.054 ± .008” and the “GPC, metabolite ratio relative to the total 31P signal” value ([1]; 6 weeks oral citicoline, doses pooled, mean ± SD, baseline .051 ± .015, ns) was “.047 ± .016”. For the same compound, the “β-NTP, metabolite ratio relative to the total 31P signal” value ([1]; 6 weeks oral citicoline, doses pooled, mean ± SD, baseline .066 ± .012, p .05) was “.075 ± .014”, the “PME, metabolite ratio relative to the total 31P signal” value ([1]; 6 weeks oral citicoline, doses pooled, mean ± SD, baseline .069 ± .016, ns) was “.073 ± .012” and the “Pi, metabolite ratio relative to the total 31P signal” value ([1]; 6 weeks oral citicoline, doses pooled, mean ± SD, baseline .073 ± .012, p .15) was “.065 ± .022”. The “PDE, metabolite ratio relative to the total 31P signal” value ([1]; 6 weeks oral citicoline, doses pooled, mean ± SD, baseline .183 ± .032, p .07) was “.154 ± .049”, the “decreased GPE, change from baseline” value [1, 3] was 23% and the “decreased PC, change from baseline” value [1, 3] was 29%. The “increased PCr/Pi, change from baseline” value ([1]; six weeks of citicoline supplementation, doses pooled, increase) was 32%, the “increased PCr, change from baseline” value [1, 4] was 7% and the “increased PE, change from baseline” value [1, 4] was 26%. For the same compound, the “increased β-NTP, change from baseline” value [1, 4] was 14%, the “Pi, metabolite ratio relative to the total 31P signal” value ([1]; six weeks, 2000 mg/day group, baseline 0.069±0.010, p=0.57) was 0.073±0.019 and the PCr/Pi ratio ([1]; six weeks, 2000 mg/day group, baseline 2.41±0.52, p=0.84) was 2.33±0.61. The “increased PCr/Pi, change from baseline” value ([1]; six weeks, low dose (500 mg), increase) was 66%, the “decreased Pi, change from baseline” value ([1]; six weeks, low dose only (500 mg), decrease) was 26% and the PCr/Pi ([2]; baseline 2.30 ± .34, ns) was 2.38 ± .53. The “PC, metabolite ratio relative to the total 31P signal” value ([2]; baseline .023 ± .009, ns) was “.026 ± .012”, the “GPE, metabolite ratio relative to the total 31P signal” value ([2]; baseline .034 ± .011, ns) was “.032 ± .014” and the “GPC, metabolite ratio relative to the total 31P signal” value ([2]; baseline .047 ± .017, ns) was “.047 ± .010”. For the same compound, the “β-NTP, metabolite ratio relative to the total 31P signal” value ([2]; baseline .063 ± .009, ns) was “.066 ± .010”, the “PE, metabolite ratio relative to the total 31P signal” value ([2]; baseline .065 ± .009, ns) was “.058 ± .010” and the “Pi, metabolite ratio relative to the total 31P signal” value ([2]; baseline .072 ± .010, ns) was “.075 ± .013”. The “PME, metabolite ratio relative to the total 31P signal” value ([2]; baseline .088 ± .015, ns) was “.084 ± .011”, the “PCr, metabolite ratio relative to the total 31P signal” value ([2]; baseline .164 ± .016, ns) was “.173 ± .015” and the “PDE, metabolite ratio relative to the total 31P signal” value ([2]; baseline .165 ± .029, ns) was “.152 ± .030”.
